melting point | SMILES
117 to 119 °C | CSc1cc(C=O)cc(OCc2ccccc2)c1O
60 °C | CCSN(C)C(=O)Nc1ccc(OC)c(Cl)c1
79 °C | COc1ccc(-n2nc(C(F)(F)F)cc2CO)cc1
222 to 224 °C | O=C(O)CNC(=O)c1ccccc1NC(=O)c1ccccc1O
223 °C | CCOC(=O)COc1ccc(NC(=O)c2sc(NC(=N)N)nc2C)cc1
98 to 100 °C | O=C1C=C(Nc2ccccc2F)CCN1
68 to 69 °C | Cc1cc(CCCOc2ccc(-c3noc(C(F)(F)F)n3)cc2)on1
84.4 to 85.4 °C | CC(=O)O[C@H]1CC[C@H](c2ccc(I)cc2)CC1
95 to 98 °C | CN(C)c1ccc(C2NCCc3sccc32)cc1 (stereo unspecified)
105 to 107 °C | CCCn1c2c(ccc1=O)C(NCCc1ccc(Cl)c(Cl)c1)CCC2 (stereo unspecified)
173 to 175 °C | CC(=O)N1CCC(N(C)C(=O)c2ccc3nonc3c2)CC1
133 to 136 °C | CNc1nc(-c2ccccc2)c(CCOC)c2ncnn12
165 to 168 °C | CCCc1c(OCCCc2ccc3cc(OC)c(OC)cc3c2)ccc(C(=O)O)c1O
> 300 °C | N#CC(C#N)=C1Sc2nc3ccc(Cl)cc3nc2S1
134 °C | CC(=O)NCc1cc(CCC(=O)O)no1
228 °C | Cc1cc2c(cc1C)C(=O)C(Br)=C(N)C2=O
153 to 155 °C | C#CC(OC)Oc1cc(Cc2cnc(N)nc2N)cc(OC)c1OC (stereo unspecified)
128 to 129 °C | CON(C)c1nc(C)cc(O)n1
152 to 153 °C | Cc1ccc(-c2ccc3c(c2)C=C(C(=O)Nc2ccc(CN(C(C)C)C(C)C)cc2)CCO3)cc1
135 to 137 °C | CCn1c(Br)cc2c(C)nc3c(Br)cnn3c21
141 to 143 °C | COCc1cn(-c2cccc(C(F)(F)F)c2)nc(C(C)=O)c1=O
106 to 115 °C | CCN(CCC12CC3CC(CC(C3)C1)C2)C(=O)NCCCc1ccncc1
181 to 183 °C | CC(=O)OCc1ccc2oc(=O)c(C(=O)Oc3ccccc3C#N)cc2c1

melting point | SMILES
331 °C | O=c1[nH]cnc2c1cnn2-c1ncc(C(F)(F)F)cc1Cl
124 °C | CSc1nc(Cl)c2cc(Br)ccc2n1
192 to 195 °C | O=S(=O)(c1scc(Br)c1Br)n1nnc2c(Br)cc(C(F)(F)F)cc21
166 to 167 °C | Cc1nc(N)c2nc(C)n(CCCCCS(=O)(=O)c3ccccc3)c2c1C
193 to 194 °C | O=C(O)c1ccc(OCCCON=Cc2cn(Cc3ccccc3)c3ccccc23)c(-c2ccc(C(F)(F)F)cc2)c1
198 to 201 °C | COC(=O)Nc1nc2cc(S(=O)CC(C)C)ccc2[nH]1 (stereo unspecified)
145 °C | COc1ccc(Cl)cc1C(=O)NCCc1ccc(-c2ccc(OC(C)C(=O)O)cc2)cc1 (stereo unspecified)
133 to 135 °C | O=C(CCCN1CCN(c2nc3nccc(-c4ccncc4)n3n2)CC1)c1ccc(F)cc1
248 °C | CCCCCOc1ccc(-c2ccc(-c3ccc(C(=O)OC)cc3)cc2)cc1
124 to 125 °C | CCOC(=O)c1c(C)cc(NC(=O)CCl)c(C(=O)O)c1C
178 to 180 °C | C=CCC1CC(c2c[nH]c(-c3ccc(F)cc3)c2-c2ccncc2)=CCN1C (stereo unspecified)
65 to 67 °C | CC(C)(CCCCCC(O)CCCCCC(C)(C)CC(=O)c1cccnc1)COC(=O)c1cccnc1 (stereo unspecified)
149 to 151 °C | COc1ccc2cc(-c3cnc(-c4ccccc4)o3)ccc2c1
71 to 72 °C | COC(=O)Cc1c(-c2ccc3c(c2)OCO3)c2ccccc2n(Cc2ccccc2OC)c1=O
70 to 72 °C | CC(C)C(NC(=O)Cn1cccc(NC(=O)Cc2ccccc2)c1=O)C(=O)C(F)(F)F (stereo unspecified)
148 to 150 °C | Fc1ccc(-c2cc(-c3ccc(F)cc3)nc(Nc3ccc(OC(F)(F)F)cc3)n2)cc1
128 to 129 °C | O=C(c1ccc(Cl)cc1)c1ccc(NCC2CO2)cc1 (stereo unspecified)
148 to 149 °C | CCCCCS(=O)(=O)NC(=O)c1ccc2nc(C)n(Cc3ccc(N(C)CC)cc3Cl)c2n1
176 °C | O=C(c1ccc(F)cc1)C1CCN(CCCCn2c(=O)[nH]c3ccccc32)CC1
83 to 88 °C | COC(=O)C(CO)N(Cc1cc(F)ccc1[N+](=O)[O-])S(=O)(=O)c1ccc(OC)cc1 (stereo unspecified)
> 300 °C | C=C1C(O)C(CO)OC1n1ccc(NC(=O)c2ccccc2)nc1=O (stereo unspecified)
98 to 100 °C | CCC1(C=O)CSc2ccccc2C(c2ccccc2)=N1 (racemic)

The remaining lines, values behind:

SMILES | melting point
Nc1ncccc1NCc1ccc(OCc2cccc(F)c2)cc1 | 91 to 93 °C
CCCCCc1cc(OC)c(C2=C[C@H]3CC[C@]2(C(=O)O)C3(C)C)c(OC)c1 | 84 to 86 °C
O=C1CN(c2ccccc2)C(=O)C1c1ccccc1 (stereo unspecified) | 285 to 287 °C
CCCCOc1ccccc1C(O)CNC(C)Cc1ccc(OC)c(OC)c1 (stereo unspecified) | 119 to 121 °C
COC(=O)CCC(=O)OC(=C1C(=O)N(C(N)=O)c2cc(Cl)c(F)cc21)c1cccs1 | 179 to 183 °C
O=C(O)c1cc2ccccc2n1S(=O)(=O)c1cccc(Cl)c1 | 216 to 217 °C
Cc1ccccc1C1c2cc(Cl)ccc2OC(=O)C1C(=O)N(C)Cc1cc(C(F)(F)F)cc(C(F)(F)F)c1 (stereo unspecified) | 148 to 149 °C
COc1ccc(CC(=Nc2ccccc2)NC(=S)NCc2cccnc2)cc1 | 175 to 176 °C
CC(ON1C(C)(C)CC(O)CC1(C)C)C(=O)NCCCN(C)C (stereo unspecified) | 85 to 88 °C
N#Cc1cc(C=O)cnc1Br | 105 to 106 °C
O=C(c1ccc(NS(=O)(=O)c2ccccc2)cc1)N1CCCCc2ccccc21 | 178 to 182 °C
CC1(C)c2cc(C#N)ccc2OC1O (stereo unspecified) | 103 to 122 °C
C[C@@H](Nc1ncnc2[nH]c(-c3cccc([N+](=O)[O-])c3)cc12)c1ccccc1 | > 250 °C
COC(=O)CCc1cc2c(c(C(C)(C)C)c1)OC(=O)C2c1cc(C)ccc1C (stereo unspecified) | 80 °C
O=[N+]([O-])c1ccc2[nH]cc(CCCO)c2c1 | 107 to 110 °C
CS(=O)(=O)Nc1ccccc1OCCCN1CCC(OC(c2ccccc2)c2ccsc2)CC1 (stereo unspecified) | 79.5 to 82 °C
CNC(=O)N1N=C(c2ccc([N+](=O)[O-])cc2)c2cc(Br)ccc2CC1C (stereo unspecified) | 197 to 200 °C
NS(=O)(=O)c1ccc(/C(=C(\CCO)C(=O)O)c2ccc(F)cc2)cc1 | 160 to 162 °C
CC(=O)Nc1scc(C(C)(C)C)c1C(N)=O | 251 °C

SMILES | melting point
CN1C(=O)C(C(=O)Nc2cccc(C(F)(F)F)c2)S(=O)(=O)c2ccc(Cl)cc21 (stereo unspecified) | 196 to 200 °C
COc1ccccc1NC(=O)Nc1ccc(N2CCN(C(=O)Nc3cc(OCCO)ccc3Cl)CC2)cc1 | 179 to 180 °C
NP(N)(=S)N1CCCCC1 | 97 to 102 °C
CCOC(=O)Cc1c(C)n(Cc2ccccc2)c2ccc(OCc3nc4ccccc4s3)cc12 | 106 to 107 °C
O=C1OCc2c(c3cc(-c4ccc(OC(F)(F)F)cc4)ccc3n2Cc2ccccc2)C1=O | 239 to 240 °C
Cc1cccc(-c2[nH]c(C(C)C)nc2-c2cccc(-c3ccc(NS(C)(=O)=O)cc3)c2)n1 | 128 to 130 °C
NNc1nnc(Cl)cc1N | 190 °C
CCOC(=O)CCn1c(=O)c2ccccc2n(CCCCCl)c1=O | 71 to 72 °C
CC1CN(C(=O)COc2nc(-c3ccc(Cl)cc3)nc3c2CCCC3)CC(C)O1 (stereo unspecified) | 265 to 268 °C
CCCCn1c(C)c(N)c(=O)n(C)c1=O | 74 to 75 °C
O=C(N[C@@H](Cc1c[nH]c2ccccc12)C(=O)O)c1ccccc1 | 84 to 86 °C
O=C(O)c1ccccc1NCc1ccncc1 | 208 °C
CCOC(=O)c1ccc(C(=O)Nc2ccc3c(c2)C(C)(C)CC(=O)N3C)cc1 | 197 to 199 °C
CCOC(=O)C1(C(=O)OCC)CCC2(CC1)NCCc1cc(OC)c(OC)cc12 | 103 to 104 °C
COc1cc2c(cc1Nc1ncc(Cl)c(Nc3ccccc3S(=O)(=O)N3CCCC3)n1)CCN(CC(=O)N(C)C)CC2 | 67 to 74 °C
COc1ccc(-c2[nH]nc3c2C(=O)c2c(NC(=O)Cc4ccc5c(c4)OCO5)cccc2-3)cc1 | 297 °C
CC(=O)Oc1ccc(-c2cncnc2Cl)cc1OC(C)=O | 108 °C
Cc1ccc2c(c1)C(CC(=O)NO)N(c1ccccc1)S2(=O)=O (stereo unspecified) | 150 to 155 °C
CCOC(=O)c1c(O)ccc(Cc2c[nH]cn2)c1C | 42 to 45 °C

SMILES | melting point
Cc1cc(-n2ccnc2)ccc1[N+](=O)[O-] | 138 to 140 °C
Cc1cc(O)c(Oc2ccccc2C#N)cc1N1CCOCC1 | 162 to 165 °C
Cc1sc2c(Br)c3ccccc3c(-c3cc(Br)c(O)c(C(C)C)c3)c2c1C | 157 to 162 °C
CN(C)c1c(Cl)cc(C(O)CNC(C)(C)C)cc1Cl (stereo unspecified) | 96 to 99 °C
COc1ccc2nc3cc(OC)c(=O)cc-3sc2c1 | 237 to 238 °C
Cc1nc2c(s1)C=Cc1cc(Cl)ccc1C2c1cn(C)c(=O)[nH]c1=S (stereo unspecified) | 305 °C
NC(=O)c1cn(Cc2ccccc2F)nn1 | 220 to 222 °C
COc1ccc(C(=O)NCC(O)CCl)cc1OC (stereo unspecified) | 104 to 106 °C
COc1cc2nc(N3CCN(C(=S)Nc4ccccc4)CC3)nc(N)c2cc1OC | 138 to 140 °C
O=C(O)c1ccc2ccc3ccc(C(=O)O)cc3c2c1 | 390 °C
O=C1c2cccc(NC(=S)Nc3cnccn3)c2C2CCCCN12 (stereo unspecified) | 204 °C
CCC(=O)N1CCC(C(=O)OC2c3ccccc3C(=O)N2c2ccc3ccc(Cl)nc3n2)CC1 (stereo unspecified) | 189 °C
O=C(Nc1n[nH]c2cc(Cl)ccc12)c1cc(Cl)cc(Cl)c1 | 240 °C
COc1cc(C(C)=O)ccc1OCCCN1C2CCC1CC(c1n[nH]c3cc(F)ccc13)C2 (stereo unspecified) | 157 to 158 °C
NC(=O)CCCOc1cccc(-c2n[nH]c3c2Cc2ccccc2-3)c1 | 200 to 202 °C
CCC12CCC3C4CCC(OC)=CC4=CCC3C1C=CC2=O (stereo unspecified) | 159 to 161 °C
O=C(C[C@H]1CC[C@@H](C(=O)O)N1Cc1ccccc1)N[C@@H](Cc1ccc(OCc2c(Cl)cccc2Cl)cc1)C(=O)O | 198 to 202 °C
CC(=O)c1c(NC(C)(C)C)nc(NC(C)(C)C)c(Br)c1C | 99 to 100 °C

Reference: a melting point compilation (Tetko et al.; mined from patent text by program, amines drawn as free bases though some values may be those of a salt)
